Assay results from patent US7781593B2, “5-phenyl-nicotinamide derivatives” (Hoffmann-La Roche Inc., priority 2006, dated 2010).

How the values were obtained:
[1] = molecular target: T1, human cannabis CB1 receptor (Homo sapiens, UniProt P21554); assay: Affinity for cannabinoid CB1 receptors, [3H]-CP-55,940 radioligand binding on HEK cell membranes
T1 construct: expressed in transfected cells; host or cells: human embryonic kidney (HEK) cells, Semliki Forest Virus system, membrane preparation
Experimental: The affinity of the compounds of the invention for cannabinoid CB1 receptors was determined using membrane preparations of human embryonic kidney (HEK) cells in which the human cannabis CB1 receptor is transiently transfected using the Semliki Forest Virus system in conjunction with [3H]-CP-55,940 as radioligand. After incubation of a freshly prepared cell membrane preparation with the [3H]-ligand, with or without addition of compounds of the invention, separation of bound and free ligand was performed by filtration over glassfiber filters. Radioactivity on the filter was measured by liquid scintillation counting.
The compounds of formula (I) show an excellent affinity for the CB1 receptor, determined with the experimental conditions described in Devane et al. Mol. Pharmacol. 34 (1988) 605-613.

[2] = wild-type versus CB1 receptor knockout mice; cited from earlier work
[3] = doses of 10 and 20 mg daily; cited from earlier work

T1 sequence (P21554 whole entry): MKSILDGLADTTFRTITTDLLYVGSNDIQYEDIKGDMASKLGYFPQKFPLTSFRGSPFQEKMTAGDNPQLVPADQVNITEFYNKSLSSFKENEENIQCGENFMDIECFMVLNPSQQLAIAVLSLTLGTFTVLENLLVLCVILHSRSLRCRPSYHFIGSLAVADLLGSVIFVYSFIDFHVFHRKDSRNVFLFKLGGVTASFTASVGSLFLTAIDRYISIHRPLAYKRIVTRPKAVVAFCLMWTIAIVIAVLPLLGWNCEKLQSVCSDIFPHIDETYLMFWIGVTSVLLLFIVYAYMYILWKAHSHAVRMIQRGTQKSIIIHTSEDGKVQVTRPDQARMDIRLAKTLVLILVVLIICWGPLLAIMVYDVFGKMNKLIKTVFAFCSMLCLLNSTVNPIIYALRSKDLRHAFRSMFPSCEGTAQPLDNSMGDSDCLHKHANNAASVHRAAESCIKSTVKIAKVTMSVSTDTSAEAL

Ki [1] | Structure (SMILES) | food intake [2] | body weight compared to placebo [3]
26 nM | O=C(N[C@@H]1CCCC[C@H]1O)c1cnc(CCC2CC2)c(-c2ccc(Cl)cc2)c1 [Example 2, 5-(4-Chloro-phenyl)-6-(2-cyclopropyl-ethyl)-N-((1R,2R)-2-hydroxy-cyclohexyl)-nicotinamide] |  | 
60 nM | O=C(N[C@@H]1CCCC[C@H]1O)c1cnc(CCc2cncnc2)c(-c2ccc(C(F)(F)F)cc2)c1 [Example 3, N-((1R,2R)-2-Hydroxy-cyclohexyl)-6-(2-pyrimidin-5-yl-ethyl)-5-(4-trifluoromethyl-phenyl)-nicotinamide] |  | 
11 nM | O=C(N[C@@H]1CCCC[C@H]1O)c1cnc(CCc2cccnc2)c(-c2ccc(Cl)cc2)c1 [Example 7, 5-(4-Chloro-phenyl)-N-((1R,2R)-2-hydroxy-cyclohexyl)-6-(2-pyridin-3-yl-ethyl)-nicotinamide] |  | 
 | Cc1c(C(=O)NN2CCCCC2)nn(-c2ccc(Cl)cc2Cl)c1-c1ccc(Cl)cc1 [SR 141716] | reduces food intake in wild-type but not knockout mice | significantly reduced body weight
